Results from patent US11655239B2 (SHANGHAI INSTITUTE OF MATERIAL MEDICA, CHINESE ACADEMY OF …, priority 2019, dated 2023).

Tested on: pulmonary fibrosis induced by bleomycin in mice
Assay: Active TGF-β1 in BALF (ELISA)
Format: in vivo, mouse
Settings: 90 mg/kg; reduced from 123 pg/ml in BLM group
Experimental: The expression level of active TGF-β1 in BALF was detected by using the TGF-β1 ELISA detection kit (Shanghai Wuhao Bio-Tech Co., Ltd). The steps are as follows:
1) 10 standard wells were set on the enzyme coated plate. After the standard was diluted, the volume in each well was 50 μl, and the concentration was 1800 ng/L, 1200 ng/L, 600 ng/L, 300 ng/L, 150 ng/L, respectively. The concentration was the same every two tubes.
2) Sample addition: a blank well (no sample and enzyme reagent) and a well for the sample to be tested were set, respectively. 40 μl of sample dilution solution was added to the well for the sample to be tested on the enzyme coated plate, and then 10 μl of the sample to be tested was added.
3) Incubation: the sample to be tested was sealed with a sealing film and then incubated at 37° C. for 30 minutes.
4) Solution preparation: the concentrated washing liquid (30 times (20 times of 48T)) was diluted 30 times (20 times of 48T) with distilled water for use.
5) Wash: the liquid was discarded and spun dry. Each well was filled with the washing liquid. After standing for 30 seconds, the washing liquid was discarded. This was repeated 5 times and pat dry. […]
10) Determination: zero setting was performed using a blank well within 15 minutes after the reaction was stopped, and the absorbance (OD value) of each well was measured in sequence at a wavelength of 450 nm.

For `O=C(Nc1cccc(C(F)(F)F)c1)c1ccc(C2CC2)c(-c2ccc3nc(Nc4cnn(C5CC5)c4)ncc3c2)c1` [Compound S15, 4-cyclopropyl-3-(2-((1-cyclopropyl-1H-pyrazol-4-yl)amino)quinazolin-6-yl)-N-(3-(trifluoromethyl)phenyl)benzamide], the “active TGF-β1 in BALF” value was 48 pg/mL.
